Assay results published in ChEMBL document CHEMBL3734727, “Metabolomics-Driven Discovery of a Prenylated Isatin Antibiotic Produced by Streptomyces Species MBT28” (2015).
Activity calls are given as the source filed them. No cut-off for these calls is given here.

Assays:
Bacillus subtilis = assay: Antibacterial activity against Bacillus subtilis assessed as growth inhibition by microtiter plate-based MIC test
Staphylococcus aureus = assay: Antibacterial activity against Staphylococcus aureus; format: functional, organism-based
Escherichia coli = assay: Antibacterial activity against Escherichia coli K-12; format: functional, organism-based

In the case of `CC(C)=CCc1cccc2c1NC(=O)C2=O`, the MIC (Bacillus subtilis) is reported as 25 µg/mL, the Activity (Staphylococcus aureus) is reported as “inactive” and the Activity (Escherichia coli) is reported as “inactive”.
